How the values were obtained:
[1] = system: secretion of gastric acid; assay: Inhibitory action against the secretion of gastric acid (Test II), Heidenhain pouch dogs, histamine stimulated; type: in vivo, male beagle dogs; settings: Canis lupus familiaris, Heidenhain pouch dog, histamine 160 ug/kg/hr, intravenous, read-out: Suppresive action on secretion of gastric acid (%)
Experimental: Heidenhain pouch dogs produced from male beagle dogs were fasted. To the dogs were then administered intarvenously histamine hydrochloride (gastric juice secretion inducing agent) continuously at a dose of 160 ug/kg/hr. The gastric juice was collected at an interval of 15 min. to measure the amount of gastric juice and acid output to determine an acid secretion amount (mEq/15 min).
The test compound was intravenously administered to the dogs at one hour after the initiation of histamine administration.
The inhibitory action was determined by comparing the acid secretion amount, with the corresponding amount of a control dog prepared in the same manner except that a vehicle alone was administered.

H^+ +K^+ ATPase [2] = target: T1, H^+ +K^+ ATPase (Sus scrofa, UniProt P19156); assay: H+ + K+ ATPase inhibitory effects (b) pig gastric mucosa; type: biochemical; settings: pig gastric mucosa vesicle; incubated 37° C., 30 min, pH 5.5; read-out: H+ + K+ ATPase inhibitory action (IC50)
T1 construct: Gastric acid secretory cells of a pig gastric mucosa were isolated; from tissue; host or cells: pig gastric mucosa, vesicles from gastric acid secretory cells (Ficoll density gradient)
T1 sequence (P19156 2-1034 limits assumed): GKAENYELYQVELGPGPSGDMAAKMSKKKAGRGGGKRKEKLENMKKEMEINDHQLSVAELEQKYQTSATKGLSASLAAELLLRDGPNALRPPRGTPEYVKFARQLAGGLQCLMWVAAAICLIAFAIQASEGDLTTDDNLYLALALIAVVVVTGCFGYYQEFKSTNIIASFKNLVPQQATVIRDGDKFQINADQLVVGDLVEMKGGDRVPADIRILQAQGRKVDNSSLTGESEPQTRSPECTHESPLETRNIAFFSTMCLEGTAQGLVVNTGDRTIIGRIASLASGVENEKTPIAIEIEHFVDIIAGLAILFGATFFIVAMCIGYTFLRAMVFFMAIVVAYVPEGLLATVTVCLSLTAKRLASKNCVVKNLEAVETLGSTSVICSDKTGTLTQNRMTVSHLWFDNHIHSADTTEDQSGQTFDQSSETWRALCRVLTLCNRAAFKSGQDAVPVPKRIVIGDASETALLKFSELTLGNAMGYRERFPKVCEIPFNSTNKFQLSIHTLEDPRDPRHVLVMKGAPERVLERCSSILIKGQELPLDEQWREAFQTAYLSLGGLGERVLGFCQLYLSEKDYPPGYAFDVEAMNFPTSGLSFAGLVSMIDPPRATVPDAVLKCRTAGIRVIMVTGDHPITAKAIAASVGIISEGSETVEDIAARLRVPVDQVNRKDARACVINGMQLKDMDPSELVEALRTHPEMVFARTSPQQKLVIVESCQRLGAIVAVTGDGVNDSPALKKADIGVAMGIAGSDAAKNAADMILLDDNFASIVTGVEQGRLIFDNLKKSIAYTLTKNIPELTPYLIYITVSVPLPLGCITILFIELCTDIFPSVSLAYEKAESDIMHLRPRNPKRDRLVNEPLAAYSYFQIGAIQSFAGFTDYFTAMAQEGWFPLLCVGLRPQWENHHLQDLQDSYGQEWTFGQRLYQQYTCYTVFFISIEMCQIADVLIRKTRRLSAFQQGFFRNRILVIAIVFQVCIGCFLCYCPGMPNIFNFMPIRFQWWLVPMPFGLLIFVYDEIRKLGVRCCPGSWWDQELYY
T1 sequence (P18434 whole entry partner): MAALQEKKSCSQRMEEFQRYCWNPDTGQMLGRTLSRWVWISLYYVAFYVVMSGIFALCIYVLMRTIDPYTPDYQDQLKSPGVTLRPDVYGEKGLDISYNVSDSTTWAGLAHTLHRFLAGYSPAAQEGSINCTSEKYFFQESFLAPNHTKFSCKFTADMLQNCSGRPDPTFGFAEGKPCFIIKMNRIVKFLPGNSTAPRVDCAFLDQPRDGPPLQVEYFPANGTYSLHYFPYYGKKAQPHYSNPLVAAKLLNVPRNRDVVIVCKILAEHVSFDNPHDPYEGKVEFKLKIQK
Experimental: Gastric acid secretory cells of a pig gastric mucosa were isolated in the same manner as in the test for rabbit gastric mucosa. A vesicle containing H^+ +K^+ ATPase was prepared by centrifuging the cells in Ficoll of discontinuous density gradient. The enzyme and each test compound were incubated at 37° C. for 30 min. in a solution which contained 2 mM of a bisTRIS-acetate buffer (pH 5.5). To the resulting mixture were added a solution of 37.5 mM of bisTRIS-acetate buffer solution (pH 7.4), 2 mM of magnesium chloride, 2 mM of ATP and 5 mM of potassium chloride, and the mixture was then heated to 37° C. for 10 min. for performing a reaction. The reaction was terminated by addition of 5% trichloroacetic acid solution, and an inorganic phosphorus liberated was quantitatively measured by Fiske-Subbarow method. The ATPase activity was determined from the obtained inorganic phosphorus value.
(§1) The above procedure was repeated except for not using potassium chloride to determine an ATPase activity in the absence of potassium chloride.
The desired […] ATPase activity was calculated by subtracting the ATPase activity value determined in the absence of KCl from the ATPase activity value determined in the presence of KCl.

H^+ +K^+ ATPase [3] = target: T2, H^+ +K^+ ATPase (Oryctolagus cuniculus, UniProt P27112); assay: H+ + K+ ATPase inhibitory effects (a) rabbit gastric mucosa; type: biochemical; settings: rabbit gastric mucosa vesicle; 2×10^-4 M test compound, pH 6.0, 25 min preincubation; read-out: H+ + K+ ATPase inhibitory action (%)
T2 construct: gastric acid secretory cells of a rabbit gastric mucosa were isolated; from tissue; host or cells: rabbit gastric mucosa, vesicles from gastric acid secretory cells (Ficoll density gradient)
T2 sequence (P27112 2-1035 limits assumed): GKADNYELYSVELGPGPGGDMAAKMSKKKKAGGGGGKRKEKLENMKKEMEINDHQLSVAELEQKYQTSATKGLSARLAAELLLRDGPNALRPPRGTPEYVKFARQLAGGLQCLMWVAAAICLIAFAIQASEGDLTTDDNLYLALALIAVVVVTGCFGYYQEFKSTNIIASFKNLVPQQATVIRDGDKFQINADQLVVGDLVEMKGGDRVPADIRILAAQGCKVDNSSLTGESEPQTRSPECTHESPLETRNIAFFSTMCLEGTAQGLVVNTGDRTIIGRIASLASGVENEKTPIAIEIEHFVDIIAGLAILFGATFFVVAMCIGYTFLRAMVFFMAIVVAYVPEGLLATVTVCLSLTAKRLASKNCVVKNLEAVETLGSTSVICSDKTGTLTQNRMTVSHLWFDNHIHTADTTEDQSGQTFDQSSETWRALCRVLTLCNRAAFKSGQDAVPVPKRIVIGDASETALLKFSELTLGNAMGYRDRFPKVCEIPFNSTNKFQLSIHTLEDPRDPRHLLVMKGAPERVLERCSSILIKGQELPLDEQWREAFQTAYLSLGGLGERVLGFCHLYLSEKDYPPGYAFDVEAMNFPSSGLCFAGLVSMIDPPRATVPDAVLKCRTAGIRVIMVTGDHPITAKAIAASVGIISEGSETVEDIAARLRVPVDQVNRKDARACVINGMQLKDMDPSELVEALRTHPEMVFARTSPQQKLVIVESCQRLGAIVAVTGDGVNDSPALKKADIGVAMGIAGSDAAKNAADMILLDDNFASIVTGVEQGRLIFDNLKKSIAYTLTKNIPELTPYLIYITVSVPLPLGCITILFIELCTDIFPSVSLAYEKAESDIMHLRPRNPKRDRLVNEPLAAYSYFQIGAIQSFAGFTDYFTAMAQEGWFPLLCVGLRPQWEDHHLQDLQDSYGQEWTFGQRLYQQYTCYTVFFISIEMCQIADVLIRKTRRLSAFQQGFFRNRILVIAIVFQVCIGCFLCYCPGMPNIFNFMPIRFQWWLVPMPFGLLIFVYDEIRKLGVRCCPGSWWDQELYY
T2 sequence (P18597 whole entry partner): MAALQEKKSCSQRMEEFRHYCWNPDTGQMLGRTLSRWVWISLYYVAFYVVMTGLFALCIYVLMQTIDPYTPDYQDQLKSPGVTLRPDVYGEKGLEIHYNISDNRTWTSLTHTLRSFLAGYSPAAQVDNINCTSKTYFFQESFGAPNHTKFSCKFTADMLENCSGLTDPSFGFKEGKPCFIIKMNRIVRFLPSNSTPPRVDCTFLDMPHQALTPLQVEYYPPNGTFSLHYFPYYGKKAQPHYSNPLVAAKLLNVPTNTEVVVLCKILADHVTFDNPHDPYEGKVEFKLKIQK
Experimental: Following the method of Forte et al (J. Applied Physiol., 32, 714-717 (1972)), gastric acid secretory cells of a rabbit gastric mucosa were isolated. A vesicle containing H^+ +K^+ ATPase was prepared by centrifuging the cells in Ficoll of discontinuous density gradient. After the enzyme was incubated at room temperature for 25 min. in 0.5 ml of a solution which contained 5 mM of an imidazole buffer (pH 6.0) and 2×10^-4 M of each test compound, the mixture was heated to 37° C. The mixture was then allowed to stand for further 5 min. To the mixture was added 0.5 ml of a solution which contained 4 mM of magnesium chloride, 80 mM of an imidazole buffer (pH 7.4), 20 mM of potassium chloride and 4 mM of ATP. The resulting mixture was reacted at 37° C. for 15 min. and 1 ml of a 24% trichloroacetic acid was then added to terminate the reaction. The inorganic phosphorus liberated was quantitatively determined by the method proposed by Taussky and Shorr (J. Biol. Chem., 202, […] (1953)). The ATPase activity was determined from the obtained inorganic phosphorus value.
as §1
The desired K^+ -dependent ATPase activity was calculated by subtracting the ATPase activity value determined in the absence of KCl from the ATPase activity value determined in the presence of KC1.

[4] = system: secretion of gastric acid; assay: Inhibitory action against the secretion of gastric acid (Test I), pylorus ligated rats; type: in vivo, Male Donryu rats; settings: rat, pylorus ligation, intraduodenal, 4 hours, acid output vs control
Experimental: Male Donryu rats having a body weight of 200 to 250 g were fasted (while allowing free access to water) for 24 hrs. in accordance with the conventional method [Shay, H. et al, Gastroenterology, 5, 43-61 (1945)]. Under ether anesthesia the pylorus was ligated and each test compound was administered intraduodenally. Four hours later, each rat was killed and the stomach was removed to collect the gastric juice. The inhibitory action was determined by comparing the acid output which was determined by titration to pH 7.0 with 0.1-N NaOH by means of an automatic titrator, with the corresponding value of control rat prepared in the same manner except that a vehicle alone was administered.

beagle dogs = assay: Acute toxicity test, beagle dogs; type: in vivo; settings: oral, 45 mg/kg/day for two weeks
Experimental: (§2) 2-[(2-Isobutylamino)benzylsulfinyl]imidazole (Example No. 10) was orally administered to rats and beagle dogs at a dose of 45 mg/kg/day for two weeks.

rats = assay: Acute toxicity test, rats; type: in vivo; settings: oral, 45 mg/kg/day for two weeks
Experimental: as §2

SMILES	inhibition in vivo at 3 mg/kg [1]	Suppresive action on secretion of gastric acid (%) ([4]; 10 mg/kg)	Suppresive action on secretion of gastric acid (%) ([4]; 30 mg/kg)	inhibition in vivo at 1 mg/kg [1]	other results
CNc1ccccc1C[S+]([O-])c1nc2c([nH]1)CCCC2 (stereo not shown) [Example No. 2, 2-(2-methylaminobenzylsulfinyl)-4,5,6,7-tetrahydro-1H-benzimidazole]	53%	–	–	–	IC50 (H^+ +K^+ ATPase [2]): 1800 nM
CNc1ccccc1C[S+]([O-])c1ncc[nH]1 (stereo not shown) [Example No. 8, 2-(2-methylaminobenzylsulfinyl)imidazole]	–	–	–	–	IC50 (H^+ +K^+ ATPase [2]): 2800 nM
CC(C)CNc1ccccc1CSc1ncc[nH]1 [Example No. 9, 2-[(2-isobutylamino)benzylthio]imidazole]	11%	–	–	–	–
CC(C)CNc1ccccc1C[S+]([O-])c1ncc[nH]1 (stereo not shown) [Example No. 10, 2-[(2-isobutylamino)benzylsulfinyl]imidazole]	81%	56.2%	87.0%	–	inhibition at 200 µM (H^+ +K^+ ATPase [3]): 97.2%; Acute toxicity: noticeable change (beagle dogs): no noticeable change; Acute toxicity: noticeable change (rats): no noticeable change
CNc1ccc(C)cc1C[S+]([O-])c1ncc[nH]1 (stereo not shown) [Example No. 14, 2-[(5-methyl-2-methylamino)benzylsulfinyl]imidazole]	97%	82.2%	98.6%	–	inhibition at 200 µM (H^+ +K^+ ATPase [3]): 90.8%
CC(C)Nc1ccccc1C[S+]([O-])c1ncc[nH]1 (stereo not shown) [Example No. 23, 2-[(2-isopropylamino)benzylsulfinyl]imidazole]	66%	–	–	–	–
CCNc1ccccc1C[S+]([O-])c1ncc[nH]1 (stereo not shown) [Example No. 25, 2-[(2-ethylamino)benzylsulfinyl]imidazole]	80%	74.0%	93.3%	–	inhibition at 200 µM (H^+ +K^+ ATPase [3]): 87.5%
[O-][S+](Cc1ccccc1NCc1ccccc1)c1ncc[nH]1 (stereo not shown) [Example No. 27, 2-[(2-benzylamino)benzylsulfinyl]imidazole]	57%	–	–	–	–
COc1ccc(NCC(C)C)c(C[S+]([O-])c2ncc[nH]2)c1 (stereo not shown) [Example No. 29, 2-[(2-isobutylamino-5-methoxy)benzylsulfinyl]imidazole]	81%	30.8%	89.0%	30%	–
CNc1cccc(C)c1C[S+]([O-])c1ncc[nH]1 (stereo not shown) [Example No. 33, 2-[(2-methyl-6-methylamino)benzylsulfinyl]imidazole]	–	92.9%	91.4%	70%	–
CNc1ccccc1C[S+]([O-])c1nc(C)c[nH]1 (stereo not shown) [Example No. 37, 4-methyl-2-[(2-methylamino)benzylsulfinyl]imidazole]	50%	–	–	–	–
COc1cccc(NCC(C)C)c1C[S+]([O-])c1ncc[nH]1 (stereo not shown) [Example No. 41, 2-[(2-isobutylamino-6-methoxy)benzylsulfinyl]imidazole]	97%	–	–	66%	–
Cc1cccc(NCC(C)C)c1C[S+]([O-])c1ncc[nH]1 (stereo not shown) [Example No. 45, 2-[(2-isobutylamino-6-methyl)benzylsulfinyl]imidazole]	–	86.8%	90.3%	82%	–
Cc1ccc(C[S+]([O-])c2ncc[nH]2)c(NCC(C)C)c1 (stereo not shown) [Example No. 47, 2-[(2-isobutylamino-4-methyl)benzylsulfinyl]imidazole]	–	–	–	87%	–

— patent US5082943A, “Novel imidazole derivatives” (Nippon Chemiphar Co., Ltd., priority 1988, dated 1992)
